US20230032101A1, “FIVE-MEMBERED HETEROCYCLIC OXOCARBOXYLIC ACID COMPOUND AND MEDICAL USE THEREOF” (Shanghai Institute of Materia Medica, Chinese Academy of …, priority 2019, published 2023)

How the values were obtained:
Assay type in all cases: cell-based
[1] = tested on: type I interferon pathway (ISG) in human THP1-Blue-ISG cells; test: Activation of type I interferon pathway (ISG) in human THP1-Blue-ISG cells (Quanti-Blue, OD650); conditions: 24 h, Compound OD650/Control OD650, ≥2 times considered valid; for fold induction at 10 µM / fold induction at 50 µM: Homo sapiens, THP1-Blue ISG, read-out: Fold Change
Method: 20 μL of compound diluted with physiological saline was added to each well of a 96-well cell culture plate, the positive control compound was ADU-S100, and the solvent control group was added with 20 μL of physiological saline containing DMSO. THP1-Blue-ISG cells were counted, the cell concentration was adjusted to 5×10^5/mL, and 180 μL of cells were added to each well for incubation. Therefore, the final volume of each test well was 200 μL, the content of DMSO was 0.1%/0.5%, the test concentration of the compound was 10/50 μM, and the positive control compound was ADU-S100 at a final concentration of 10 μM, and incubated for 24 hours for detection.
After 24 hours, 20 μL of the culture solution was took out from each well to a new 96-well plate, 180 μL of chromogenic solution Quanti-Blue was added, placed in a 37° C. incubator, and the OD650 value was measured after 0.5-2 hours. The experiment was repeated twice.
The experimental results were used to evaluate the ability of compounds to induce the secretion of type I interferon pathway (ISG) by the Fold Change, which was calculated as follows:
Fold Change=Compound OD650/Control OD650, wherein the results of ≥2 times were considered valid.

[2] = tested on: type I interferon pathway in murine Raw-lucia cells; test: Activation of type I interferon pathway in murine Raw-lucia cells (QUANTI-Luc luminescence); conditions: Mus musculus, 24 h, Compound Luminescence/Control Luminescence, ≥2 times considered valid, read-out: Fold Change
Method: Raw-lucia cells were counted, the cell concentration was adjusted to 5×10^5/mL, and 180 μL of cells were added to each well for incubation. 20 μL of compound diluted with physiological saline was added to each well of a 96-well cell culture plate after cells were adhered, the concentration of the compound was 50 μM/100 μM.
After 24 hours, 20 μL of the culture medium was took out from each well to a new 96-well plate with bottom-transmitting, 50 μL of the luciferase detection reagent QUANTI-Luc™ was added, and the […] was measured immediately (in the dark). The experiment was repeated twice.

[3] = tested on: type I interferon pathway (ISG) in human THP1-Blue-ISG cells; test: Activation of type I interferon pathway (ISG) in human THP1-Blue-ISG cells (Quanti-Blue, OD650); conditions: 24 h, Compound OD650/Control OD650, ≥2 times considered valid, read-out: Fold Change

COC(=O)CC(=O)c1cc(-c2c[nH]c3cccc(F)c23)co1 [Example I-39, methyl 3-(4-(4-fluoro-1H-indol-3-yl)furan-2-yl)-3-oxopropanoate]
fold induction at 10 µM ([1]; 10 μM): 59.5

COC(=O)CC(=O)c1cc(-c2c[nH]c3c(F)cccc23)co1 [Example I-38, methyl 3-(4-(7-fluoro-1H-indol-3-yl)furan-2-yl)-3-oxopropanoate]
fold induction at 10 µM ([1]; 10 μM): 77.2

COC(=O)CC(=O)c1cc(-c2c[nH]c3cc(F)ccc23)cs1 [Example I-17, methyl 3-(4-(6-fluoro-1H-indol-3-yl)thiophen-2-yl)-3-oxopropionate]
fold induction at 10 µM ([1]; 10 μM): 11

O=C(O)CC(=O)c1cc(-c2c[nH]c3c(F)cccc23)cs1 [Example I-3, 3-(4-(7-fluoro-1H-indol-3-yl)thiophen-2-yl)-3-oxopropionic acid]
fold induction at 10 µM ([1]; 10 μM): 9.82

O=C(O)CCC(=O)c1cc(-c2coc3ccccc23)co1 [I′-17, 4-(4-(benzofuran-3-yl)furan-2-yl)-4-oxobutyric acid]
fold induction at 50 µM [2]: 12.5
fold induction at 25 µM ([3]; 25 μM): 21.6

O=C(O)CCC(=O)c1cc(-c2c[nH]c3c(F)cccc23)co1 [I′-58, 4-(4-(7-fluoro-1H-indol-3-yl)furan-2-yl)-4-oxobutyric Acid]
fold induction at 100 µM [2]: 14.2
fold induction at 10 µM ([1]; 10 μM): 4.14

COC(=O)CC(=O)c1cc(-c2c[nH]c3ccc(OC)cc23)co1 [Example I-43, methyl 3-(4-(5-methoxy-1H-indol-3-yl)furan-2-yl)-3-oxopropanoate]
fold induction at 10 µM ([1]; 10 μM): 23.3

O=C(O)CCC(=O)c1cc(-c2coc3ccc(F)cc23)cs1 [I′-54, 4-(4-(5-fluorobenzofuran-3-yl)thiophen-2-yl)-4-oxobutyric Acid]
fold induction at 100 µM [2]: 4.5

O=C(O)CC(=O)c1cc(-c2c[nH]c3ccc(F)cc23)cs1 [Example I-4, 3-(4-(5-fluoro-1H-indol-3-yl)thiophen-2-yl)-3-oxopropionic acid]
fold induction at 10 µM ([1]; 10 μM): 9.95

O=C(O)CCC(=O)c1scc(-c2c[nH]c3ccccc23)c1F [I′-56, 4-(3-fluoro-4-(1H-indol-3-yl)thiophen-2-yl)-4-oxobutyric Acid]
fold induction at 50 µM [2]: 12.9
fold induction at 30 µM [3]: 14.9

COC(=O)CC(=O)c1cc(-c2coc3ccccc23)co1 [Example I-31, methyl 3-(4-(benzofuran-3-yl)furan-2-yl)-3-oxopropanoate]
fold induction at 30 µM [3]: 43.2

O=C(O)CCC(=O)c1cc(-c2c[nH]c3ccc(F)cc23)cs1 [I′-48, 4-(4-(5-fluoro-1H-indol-3-yl)thiophen-2-yl)-4-oxobutyric Acid]
fold induction at 100 µM [2]: 7.63
fold induction at 30 µM [3]: 14.7

CC(CC(=O)c1cc(-c2coc3ccccc23)co1)C(=O)O (stereo not drawn) [I′-37, 4-(4-(benzofuran-3-yl)furan-2-yl)-2-methyl-4-oxobutyric Acid]
fold induction at 50 µM [2]: 3.79

O=C(O)CCC(=O)c1cc(-c2cccc3sccc23)cs1 [I′-10, 4-(4-(benzo[b]thiophen-4-yl)thiophen-2-yl)-4-oxobutyric Acid]
fold induction at 50 µM [1]: 15.1

O=C(O)CC(=O)c1cc(-c2c[nH]c3cc(F)ccc23)cs1 [Example I-2, 3-(4-(6-fluoro-1H-indol-3-yl)thiophen-2-yl)-3-oxopropionic acid]
fold induction at 10 µM ([1]; 10 μM): 11

O=C(O)CCCC(=O)c1cc(-c2c[nH]c3c(F)cccc23)cs1 [Example I-14, 5-(4-(7-fluoro-1H-indol-3-yl)thiophen-2-yl)-5-oxopentanoic Acid]
fold induction at 50 µM [1]: 1.96

O=C(O)CCC(=O)c1cc(-c2c[nH]c3cc(F)ccc23)co1 [I′-38, 4-(4-(6-fluoro-1H-indol-3-yl)furan-2-yl)-4-oxobutyric Acid]
fold induction at 50 µM [2]: 7.1
fold induction at 10 µM ([1]; 10 μM): 7.15

O=C(O)CCC(=O)c1cc(-c2csc3ccccc23)cs1 [I′-4, 4-(4-(benzo[b]thiophen-3-yl)thiophen-2-yl)-4-oxobutyric Acid]
fold induction at 50 µM [1]: 18.4

COC(=O)CC(=O)c1cc(-c2c[nH]c3ccc(OC)cc23)cs1 [Example I-42, methyl 3-(4-(5-methoxy-1H-indol-3-yl)thiophen-2-yl)-3-oxopropanoate]
fold induction at 10 µM ([1]; 10 μM): 61.8

COC(=O)CC(=O)c1cc(-c2coc3ccccc23)cs1 [Example I-26, methyl 3-(4-(benzofuran-3-yl)thiophen-2-yl)-3-oxopropanoate]
fold induction at 20 µM ([3]; 20 μM): 14.6

COC(=O)CCC(=O)c1cc(-c2c[nH]c3c(F)cccc23)cs1 [I′-50, Methyl 4-(4-(7-fluoro-1H-indol-3-yl)thiophen-2-yl)-4-oxobutyrate]
fold induction at 10 µM ([1]; 10 μM): 68.1

O=C(O)CC(=O)c1cc(-c2c[nH]c3ccccc23)cs1 [Example I-1, 3-(4-(1H-indol-3-yl)thiophen-2-yl)-3-oxopropionic Acid]
fold induction at 10 µM ([1]; 10 μM): 14.3

O=C(O)CCC(=O)c1cc(-c2c[nH]c3cc(F)ccc23)cs1 [I′-46, 4-(4-(6-fluoro-1H-indol-3-yl)thiophen-2-yl)-4-oxobutyric Acid]
fold induction at 100 µM [2]: 31.4
fold induction at 10 µM ([1]; 10 μM): 11.3

O=C(O)CCC(=O)c1cc(-c2c[nH]c3c(F)cccc23)cs1 [I′-49, 4-(4-(7-fluoro-1H-indol-3-yl)thiophen-2-yl)-4-oxobutyric Acid]
fold induction at 50 µM [2]: 36.2
fold induction at 10 µM ([1]; 10 μM): 10.3

COC(=O)CC(=O)c1cc(-c2c[nH]c3c(F)cccc23)cs1 [Example I-18, methyl 3-(4-(7-fluoro-1H-indol-3-yl)thiophen-2-yl)-3-oxopropanoate]
fold induction at 10 µM ([1]; 10 μM): 9.8

COC(=O)CC(=O)c1cc(-c2ccc3ccoc3c2)co1 [Example I-36, methyl 3-(4-(benzofuran-6-yl)furan-2-yl)-3-oxopropanoate]
fold induction at 30 µM [3]: 29.7

COC(=O)CC(=O)c1cc(-c2c[nH]c3ccc(F)cc23)cs1 [Example I-19, methyl 3-(4-(5-fluoro-1H-indol-3-yl)thiophen-2-yl)-3-oxopropionate]
fold induction at 10 µM ([1]; 10 μM): 10

Nc1ncnc2c1ncn2[C@@H]1O[C@@H]2COP(=O)([S-])O[C@@H]3[C@H](O)[C@@H](COP([O-])(=S)O[C@H]2[C@H]1O)O[C@H]3n1cnc2c(N)ncnc21.[Na+].[Na+] (stereo partly drawn) [ADU-S100, reference compound]
Fold Change ([1]; 10 μM): 12.45@10 μM

O=C(O)CCCC(=O)c1cc(-c2c[nH]c3ccccc23)cs1 [Example I-13, 5-(4-(1H-indol-3-yl)thiophen-2-yl)-5-oxopentanoic Acid]
fold induction at 30 µM [3]: 12.6

O=C(O)CCC(=O)c1cc(-c2c[nH]c3cccc(F)c23)cs1 [I′-51, 4-(4-(4-fluoro-1H-indol-3-yl)thiophen-2-yl)-4-oxobutyric Acid]
fold induction at 100 µM [2]: 9.75
fold induction at 10 µM ([1]; 10 μM): 5.27

COC(=O)CC(=O)c1cc(-c2ccc(OC)c(OC)c2)co1 [Example I-34, methyl 3-(4-(3,4-dimethoxyphenyl)furan-2-yl)-3-oxopropanoate]
fold induction at 30 µM [3]: 23.7

COC(=O)CC(=O)c1cc(-c2c[nH]c3ccc(F)cc23)co1 [Example I-40, methyl 3-(4-(5-fluoro-1H-indol-3-yl)furan-2-yl)-3-oxopropanoate]
fold induction at 10 µM ([1]; 10 μM): 53.7

COC(=O)CC(=O)c1cc(-c2c[nH]c3cc(F)ccc23)co1 [Example I-37, methyl 3-(4-(6-fluoro-1H-indol-3-yl)furan-2-yl)-3-oxopropanoate]
fold induction at 10 µM ([1]; 10 μM): 71.5

COC(=O)CC(=O)c1cc(-c2c[nH]c3ccccc23)cs1 [Example I-16, methyl 3-(4-(1H-indol-3-yl)thiophen-2-yl)-3-oxopropionate]
fold induction at 10 µM ([1]; 10 μM): 14.3
